Converted amounts (≈) assume the structure as drawn. Where two headings read alike, the source gives them in different places.

Usually IC50 stands for the concentration needed to halve the response being measured.

One assay deals with SKVLB cells. Briefly: cells. It is filed as cell-based. The conditions noted are these: Homo sapiens. The source says: (§1) The antineoplastic agent vinblastine is incorporated into the block copolymer mixture described in Example 3.
(§2) The antineoplastic agent mitomycin C is incorporated into the block copolymer mixture described in Example 3.
(§3) The antineoplastic agent methotrexate is incorporated into the block copolymer mixture described in Example 3.
(§4) The antineoplastic agent daunorubicin is incorporated into the block copolymer mixture described in Example 3.

Another assay deals with SKVO3 cells. The experiment in a line: cells. It is filed as cell-based. As to conditions: Homo sapiens.
Excerpt: as §1, §2, §3, §4

Setting [1] is: SKVO3, drug-sensitive, read-out: IC50.

Turning to `CO[C@@]12[C@H](COC(N)=O)C3=C(C(=O)C(C)=C(N)C3=O)N1C[C@@H]1N[C@@H]12` [free mitomycin, mitomycin C], the results for the IC50 in the assay with SKVLB cells and in the assay on SKVO3 cells were 1.12 µg/mL (≈ 3.35 µM) and 0.32 µg/mL (≈ 0.957 µM), respectively.

Regarding `CN(Cc1cnc2nc(N)nc(N)c2n1)c1ccc(C(=O)N[C@@H](CCC(=O)O)C(=O)O)cc1` [free methotrexate, methotrexate], the IC50 with SKVO3 cells (setting [1]) is 1.09 µg/mL (≈ 2.4 µM).

Take `CC[C@]1(O)C[C@@H]2CN(CCc3c([nH]c4ccccc34)[C@@](C(=O)OC)(c3cc4c(cc3OC)N(C)[C@H]3[C@@](O)(C(=O)OC)[C@H](OC(C)=O)[C@]5(CC)C=CCN6CC[C@]43[C@@H]65)C2)C1` [free vinblastine, vinblastine]: the half-maximal inhibitory concentration (IC50) with SKVLB cells stood at 0.615 µg/mL (≈ 0.758 µM); in the assay on SKVO3 cells (setting [1]) it was 0.095 µg/mL (≈ 0.117 µM).

For the origin of these results see patent US5698529A, “Chemotherapeutic compositions” (Supratek Pharma, Inc., priority 1996, dated 1997).
